Measured values from US6861448B2, “NAD synthetase inhibitors and uses thereof” (priority 1998, dated 2005).
≈ marks a conversion by molar mass, not a printed value. Like-named read-outs stand apart in the source and are kept apart here.

Experiments:
B. subtilis = test: microbe, parasite or virus in culture; assay type: cell-based; settings: multiple values = two or more tests; for MIC: Bacillus subtilis, read-out: Minimal Inhibitory Concentration (MIC), B. subtilis
S. aureus (MCR) = test: microbe, parasite or virus in culture; assay type: cell-based; settings: for Minimal Inhibitory Concentration (MIC), S. aureus (MCR): multiple values = two or more tests; for MIC: Staphylococcus aureus, read-out: Minimal Inhibitory Concentration (MIC), S. aureus (MCR), multiple values = two or more tests
[1] = tested on: Bacillus anthracis Sterne 34F2; test: microbe, parasite or virus in culture; assay type: cell-based; settings: for MIC: Bacillus anthracis
NAD synthetase = NAD synthetase (Bacillus subtilis, UniProt P08164); test: NAD synthetase coupled enzyme assay; assay type: biochemical; settings: NAD synthetase 2.0 μg/mL; 0.1 mM NaAD; 0.2 mM ATP; pH 8.5
NAD synthetase, sequence (P08164 whole entry): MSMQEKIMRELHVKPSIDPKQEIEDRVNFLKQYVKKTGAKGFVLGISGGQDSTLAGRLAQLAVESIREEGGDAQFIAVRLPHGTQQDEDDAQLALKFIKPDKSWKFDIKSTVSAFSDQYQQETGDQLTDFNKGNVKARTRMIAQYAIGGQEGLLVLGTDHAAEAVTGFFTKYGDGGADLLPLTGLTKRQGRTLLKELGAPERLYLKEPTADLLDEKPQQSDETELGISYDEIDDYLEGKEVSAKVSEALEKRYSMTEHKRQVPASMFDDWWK
Description: This Example illustrates the NAD synthetase enzyme inhibiting activity of some compounds of the present invention. [drawing 48] The coupled assay—production of NAD was monitored through conversion to NADH by alcohol dehydrogenase. [NADH] was monitored by 2 parallel methods: the change in absorbance at 340 nm, and fluorescence at 460 nm (excitation 320 nm). […] Controls were included for determining inhibitor background, precipitation, and ADH inhibition.

[2] = tested on: rabbit primary renal cells (RPRC); test: Cytotoxicity in rabbit primary renal cells (annexin V / PI flow cytometry); assay type: cell-based; settings: 24 hr, mean ± SEM; for % CELLULAR NECROSIS (RPRC): at 300 μM; for % APOPTOSIS (RPRC): at peak effect (30 μM)
Method: Cytotoxicity in Rabbit Primary Renal Cells
Isolation of Proximal Tubules and Culture Conditions
Rabbit renal proximal tubules were isolated using the iron oxide perfusion method and grown in 35-mm tissue culture dishes under improved conditions. The cell culture medium was a 1:1 mixture of DMEM/Ham's F-12 (without D-glucose, phenol red, or sodium pyruvate) supplemented with 15 mM HEPES buffer, 2.5 mM L-gluatmine, 1 μM pyridoxine HCL, 15 mM sodium bicarbonate, and 6 mM lactate. Hydrocortisone (50 nM), selenium (5 ng/mL), human transferrin (5 μg/mL), bovine insulin (10 nM) and L-ascorbic acid-2-phosphate (50 μM) were added to fresh culture medium immediately prior to daily media change.
All numbered compounds were diluted in methanol and the final concentration of methanol in RPRC was less then 0.1% (v/v).
Measurement of RPRC Death
Cell death was monitored in RPRC by assessment of both annexin V and PI staining using flow cytometry. Briefly, RPRC were exposed to the indicated concentrations of compounds for 24 hr. Media was removed and RPRC washed twice with phosphate-buffered saline (PBS) and incubated in a binding buffer (10 mM HEPES, 140 mM NaCL, 5 mM KCL, 1 mM MgCl2, 1.8 mM CaCl2, pH=7.4) containing annexin V-FITC (1 μmol) and PI (25 μg/mL). After a 10 min incubation, RPRC were washed three times in the binding buffer and were released from the monolayers by gentle scrapping with a rubber policeman. Annexin V and PI staining were measured using a BectonDickson FacsCalibur flow cytometer (San Jose, Calif.). An equal number of cells (10,000) were counted for sample and apoptotic cells were defined as those that stained positive for annexin V-FITC only. RPRC undergoing necrotic cell death stained for PI only.
RPRC isolated from one rabbit represented one experiment (n=1). Data were analyzed and are reported as means±standard error of the mean of at least 3 separate experiments.

[3] = STERNE34F2, read-out: approximate MIC, B. anthracis (first value)
[4] = STERNE34F2, read-out: approximate MIC, B. anthracis (second value)

SMILES: Cl.N=C(N)N[C@H](COCCCCCCCCOc1ccc(OCc2ccccc2)cc1)Cc1ccccc1 [Compound 1685]
- Minimal Inhibitory Concentration (MIC), B. subtilis (B. subtilis): <3.13 µg/mL
- Minimal Inhibitory Concentration (MIC), S. aureus (MCR) (S. aureus (MCR)): <0.78 µg/mL
- approximate MIC, B. anthracis (first value) ([1]; first value of cell, standard broth dilution assay using bacterial growth media (order assumed)): 4; 4 μg/mL
- approximate MIC, B. anthracis (second value) ([1]; second value of cell, visual turbidity, bacteria cultured in mammalian cell culture media (order assumed)): 4; 4 μg/mL
- IC50 (NAD synthetase): 9.9 µM

SMILES: C[N+](C)(C)C.[I-] [TMAI, tetramethylammonium iodide, reference compound]
- % CELLULAR NECROSIS (RPRC) [2]: 2 ± 1%
- % APOPTOSIS (RPRC) [2]: 5 ± 1%

SMILES: CC1(C)S[C@@H]2[C@H](NC(=O)[C@H](N)c3ccccc3)C(=O)N2[C@H]1C(=O)O [Ampicillin, reference compound]
- MIC (S. aureus (MCR)): > 50 µg/mL

SMILES: C[N+](C)(C)C(Cc1c[nH]c2ccccc12)C(=O)OCCCCCCCn1ccc2cc(OCc3ccccc3)ccc21 (stereo not shown) [Compound 1505]
- MIC (B. subtilis): < 0.78 µg/mL
- MIC (S. aureus (MCR)): < 0.78 µg/mL
- IC50 (NAD synthetase): 6.6 µM

SMILES: C[N+](C)(C)C(Cc1ccccc1)C(=O)NCCCCCCCCOc1ccc(OC(=O)c2cccc(Cl)c2)cc1 (stereo not shown) [Compound 1594]
- MIC (B. subtilis): > 50 µg/mL
- MIC (S. aureus (MCR)): < 6.25 µg/mL
- MIC [1, 3]: 8 µg/mL
- MIC [1, 4]: 32 µg/mL
- % CELLULAR NECROSIS (RPRC) [2]: 29 ± 4%
- % APOPTOSIS (RPRC) [2]: 13 ± 2%
- IC50 (NAD synthetase): 25 µM

SMILES: CN(C)c1ccc(C(=O)Oc2ccc(OCCCCCCCCOC(=O)C(Cc3ccccc3)[N+](C)(C)C)cc2)cc1 (stereo not shown) [Compound 1484]
- MIC (B. subtilis): < 3.13 µg/mL
- MIC (S. aureus (MCR)): < 0.78 µg/mL
- IC50 (NAD synthetase): 14.8 µM

SMILES: O=C(O)c1cn(C2CC2)c2cc(N3CCNCC3)c(F)cc2c1=O [Ciprofloxacin, reference compound]
- MIC [1, 3]: 0.25 µg/mL (≈ 0.754 µM)
- MIC [1, 4]: 0.125 µg/mL (≈ 0.377 µM)
- % CELLULAR NECROSIS (RPRC) [2]: 4 ± 1%
- % APOPTOSIS (RPRC) [2]: 9 ± 3%

SMILES: C[N+](C)(C)C(Cc1ccccc1)C(=O)NCCCCCCCCOc1ccc(OC(=O)c2cc(Cl)cc(Cl)c2Cl)cc1 (stereo not shown) [Compound 1615]
- IC50 (NAD synthetase): 22.3 µM

SMILES: CC(C)(C)OC(=O)C(Cc1cn(CCCCCCCCOc2ccc(OCc3ccccc3)cc2)c2ccccc12)[N+](C)(C)C (stereo not shown) [Compound 1494]
- IC50 (NAD synthetase): 12.5 µM

SMILES: C[N+](C)(C)c1ccc(CC(=O)OCCCCCCCCOc2ccc(OCc3cccc(Cl)c3)cc2)cc1 [Compound 1397]
- IC50 (NAD synthetase): 16.9 µM

SMILES: C[n+]1cccc(C(=O)NCCCCCCCCOc2ccc(OC(=O)c3cccc(Cl)c3Cl)cc2)c1 [Compound 1661]
- IC50 (NAD synthetase): 23.7 µM

SMILES: C[N+](C)(C)c1ccc(CC(=O)NCCCCCCCCOc2ccc(OC(=O)c3ccccc3Cl)cc2)cc1 [Compound 1622]
- IC50 (NAD synthetase): 34.2 µM

SMILES: C[n+]1cccc(C(=O)NCCCCCCCCOc2ccc(OC(=O)c3cc(F)c(F)c(F)c3)cc2)c1 [Compound 1678]
- IC50 (NAD synthetase): 36.5 µM

SMILES: C[N+](C)(C)[C@@H](Cc1c[nH]c2ccccc12)C(=O)OCCCCCCCCOc1ccc(OCc2ccccc2)cc1 [Compound 1491]
- IC50 (NAD synthetase): 19.9 µM

SMILES: C[N+]1([C@@H](Cc2ccccc2)C(=O)OCCCCCCCCOc2ccc(OCc3ccccc3)cc2)CCCCC1 [Compound 1337]
- IC50 (NAD synthetase): 20.3 µM

SMILES: CC(C)Oc1ccc(C(=O)Oc2ccc(OCCCCCCCCNC(=O)Cc3ccc([N+](C)(C)C)cc3)cc2)cc1 [Compound 1629]
- IC50 (NAD synthetase): 21.1 µM

SMILES: C[N+](C)(C)C(Cc1ccccc1)C(=O)NCCCCCCCCOc1ccc(OC(=O)c2c(F)cc(F)cc2F)cc1 (stereo not shown) [Compound 1620]
- IC50 (NAD synthetase): 21.9 µM

SMILES: C[N+](C)(C)c1ccc(CC(=O)NCCCCCCCCOc2ccc(OC(=O)c3cc(F)c(F)c(F)c3)cc2)cc1 [Compound 1650]
- IC50 (NAD synthetase): > 50 µM

SMILES: C[n+]1cccc(C(=O)NCCCCCCCCOc2ccc(OCc3cccc(Cl)c3)cc2)c1 [Compound 1422]
- IC50 (NAD synthetase): 27.9 µM

SMILES: C[N+](C)(C)c1ccc(CC(=O)NCCCCCCCCOc2ccc(OCc3cccc(Cl)c3)cc2)cc1 [Compound 1421]
- IC50 (NAD synthetase): 34.8 µM

SMILES: C[n+]1cccc(C(=O)NCCCCCCCCOc2ccc(OC(=O)c3cc(Cl)ccc3Cl)cc2)c1 [Compound 1663]
- IC50 (NAD synthetase): 18.4 µM

SMILES: COc1cccc(COc2ccc(OCCCCCCCCOC(=O)C(Cc3ccccc3)[N+](C)(C)C)cc2)c1 (stereo not shown) [Compound 1388]
- IC50 (NAD synthetase): 14.5 µM

SMILES: C[N+](C)(C)C(Cc1ccccc1)C(=O)NCCCCCCCCOc1ccc(OC(=O)c2cc(Cl)ccc2Cl)cc1 (stereo not shown) [Compound 1605]
- IC50 (NAD synthetase): 21 µM

SMILES: C[N+](C)(C)C(Cc1ccccc1)C(=O)NCCCCCCCCOc1ccc(OC(=O)c2cc(F)cc(F)c2F)cc1 (stereo not shown) [Compound 1617]
- MIC (B. subtilis): < 12.5 µg/mL
- MIC (S. aureus (MCR)): < 6.25 µg/mL
- MIC [1, 3]: 16 µg/mL
- % CELLULAR NECROSIS (RPRC) [2]: 18 ± 2%
- % APOPTOSIS (RPRC) [2]: 23 ± 3%
- IC50 (NAD synthetase): 31.4 µM

SMILES: C[N+](C)(C)c1ccc(CCCC(=O)OCCCCCCCCOc2ccc(OCc3ccccc3)cc2)cc1 [Compound 1264]
- IC50 (NAD synthetase): 38.1 µM

SMILES: C[N+](C)(C)C(Cc1ccccc1)C(=O)OCCCCCCCCOc1ccc(OCc2cccc(Cl)c2)cc1.[I-] (stereo not shown) [Compound 1391]
- Minimal Inhibitory Concentration (MIC), B. subtilis (B. subtilis): <3.13 µg/mL
- Minimal Inhibitory Concentration (MIC), S. aureus (MCR) (S. aureus (MCR)): <1.56 µg/mL
- IC50 (NAD synthetase): 11.5 µM

SMILES: C[N+](C)(C)C(Cc1ccccc1)C(=O)OCCCCCCCCOc1ccc(OC(=O)c2ccc(-n3ccnc3)cc2)cc1 (stereo not shown) [Compound 1486]
- IC50 (NAD synthetase): 37.8 µM

SMILES: CN(CCCCCCCCOc1ccc(OCc2ccccc2)cc1)C[C@H](Cc1ccccc1)[N+](C)(C)C [Compound 1499]
- IC50 (NAD synthetase): 26.8 µM

SMILES: COc1ccc(COc2ccc(OCCCCCCCCOC(=O)C(Cc3ccccc3)[N+](C)(C)C)cc2)cc1 (stereo not shown) [Compound 1389]
- IC50 (NAD synthetase): 45.5 µM

SMILES: C[n+]1cccc(C(=O)NCCCCCCCCOc2ccc(OC(=O)c3c(Cl)cccc3Cl)cc2)c1 [Compound 1664]
- IC50 (NAD synthetase): 19.9 µM

SMILES: C[N+](C)(C)c1ccc(CC(=O)OCCCCCCCCn2ccc3cccc(OCc4ccccc4)c32)cc1 [Compound 1127]
- IC50 (NAD synthetase): 23 µM

SMILES: C[n+]1cccc(C(=O)NCCCCCCCCOc2ccc3c(c2)C(=O)CC(c2ccccc2)O3)c1 (stereo not shown) [Compound 1448]
- IC50 (NAD synthetase): 30.7 µM

SMILES: CCC[N+]1([C@@H](Cc2ccccc2)C(=O)NCCCCCCCCOc2ccc(OCc3ccccc3)cc2)CCCC1 [Compound 1502]
- IC50 (NAD synthetase): 35.6 µM

SMILES: C[N+](C)(C)c1ccc(CC(=O)NCCCCCCCCOc2ccc(OC(=O)c3c(Cl)cccc3Cl)cc2)cc1 [Compound 1635]
- IC50 (NAD synthetase): 35.1 µM

SMILES: C[N+](C)(C)c1ccc(CC(=O)OCCCCCCCCCOc2ccc(OCc3ccccc3)cc2)cc1 [Compound 1321]
- IC50 (NAD synthetase): 22 µM

SMILES: N=C(N)N[C@H](COCCCCCCCCOc1ccc(OCc2ccccc2)cc1)Cc1ccccc1 [Compound 1680]
- IC50 (NAD synthetase): 10.1 µM

SMILES: COc1ccccc1COc1ccc(OCCCCCCCCOC(=O)Cc2ccc([N+](C)(C)C)cc2)cc1 [Compound 1393]
- IC50 (NAD synthetase): 36.7 µM

SMILES: C[N+](C)(C)C(Cc1ccccc1)C(=O)NCCCCCCCCOc1ccc(OC(=O)c2cccc(F)c2)cc1 (stereo not shown) [Compound 1597]
- IC50 (NAD synthetase): 21.3 µM

SMILES: C[N+](C)(C)c1ccc(CC(=O)OCCCCCCCCOc2cccc(OCc3ccccc3)c2)cc1 [Compound 1169]
- IC50 (NAD synthetase): 36.2 µM

SMILES: C[N+](C)(C)C(Cc1ccccc1)C(=O)NCCCCCCCCOc1ccc(OC(=O)c2cc(F)cc(F)c2)cc1 (stereo not shown) [Compound 1614]
- IC50 (NAD synthetase): 23.1 µM

SMILES: COC(=O)c1ccc(OCCCCCCCCOC(=O)Cc2ccc([N+](C)(C)C)cc2)cc1OCc1ccccc1 [Compound 1186]
- IC50 (NAD synthetase): 46.1 µM

SMILES: CC(=O)Nc1ccc(C(=O)Oc2ccc(OCCCCCCCCOC(=O)C(Cc3ccccc3)[N+](C)(C)C)cc2)cc1 (stereo not shown) [Compound 1482]
- IC50 (NAD synthetase): 26.2 µM
